The subject of assay [1] is latent HIV in U1 cells. As to the kind of experiment: Reactivation of latent HIV in U1 cells by RT-qPCR. It is filed as cell-based. Particulars: Na-Cro at 40 mM. How it is done:
Cell culture: J-Lat Al cells (derived from Jurkat cells harboring HIV LTR-Tat-GFP gene) and U1 cells (promonocytic cell line harboring one copy of HIV genome with defective tat gene) were obtained from NIH AIDS Reagent Program and cultured at 37° C. with 5% CO2 in RPM11640 medium containing 10% FBS and 1% penicillin-streptomycin as previously described (see G. Jiang, et al. PLoS Pathogens 11, e1005066 (2015)).
For inhibiting ACSS2 and crotonylation, cells were pretreated with ACSS2 inhibitor, AR12 (SELLECK CHEMICALS™, Houston, Tex.), for 30 minutes, followed by Na-Cro treatment for 4 or 18 hours.
Real-Time PCR Analysis: HIV gene expression was measured using real-time PCR in J-Lat Al cells treated with LRAs. Total nucleic acid was extracted using RNEASY™ Kit, genomic DNA digested using DNase I and total RNA reverse transcribed using Superscript III to synthesize cDNA. […] […] TAMRA-3′ (SEQ ID NO:3).
(Quantitative PCR measures a nucleic acid by following its amplification.)

Assay [2] concerns latent HIV in primary CD4+ T cells from HIV-infected patients under suppressive ART. Description: HIV transcription by ddPCR in primary CD4+ T cells from HIV-infected patients. The conditions noted are these: primary CD4+ T cells of 6 patients; 40 mM Na-Cro or 12 nM PEP005; 6 hours; ddPCR. In kind it is cell-based. How it is done:
Panels A-C illustrate that primary CD4+ T cells were treated with […] PMA 2 plus 2 μg/ml ionomycin, 12 nM PEP005, 40 mM Na-Cro, or 12 nM PEP005 combined with 40 mM Na-Cro for 6 hours. Viral transcription from total RNA was analyzed by RT-ddPCR with primers targeting initiation (TAR region) (see panel A), elongation (long LTR) (see panel B), or full transcription (poly A region) (see panel C) of the HIV genome. Panel D illustrates a working model of epigenetic regulation of HIV latency/transcription by histone crotonylation.
To validate this finding in the ex vivo primary CD4+ T cells from patients the peripheral blood samples from 6 HIV-infected patients under suppressive ART were obtained. They had undetectable plasma viral load (<20 copies/ml plasma) and >400 CD4+ T cell number per […] (see Table 1). Primary CD4+ T cells were treated with PMA/Ionomycin, PEP005, Na-Cro, or PEP005 in combination with Na-Cro for 6 hours. HIV transcription following reactivation was measured by digital droplet PCR (ddPCR) targeting TAR region (initiation), long LTR region (elongation), or Poly A region (full transcription) of HIV genome (see G. Jiang, et al. PLoS pathogens 11, e1005066 (2015); P. Kaiser, et al. Journal of virological methods 242, 1-8 (2017); and L. Shan, et al. Journal of Virology 87, 6521-6525 (2013)).
Primary CD4+ T Cell Isolation, Treatment, and Digital Droplet PCR Assays: Peripheral blood samples were obtained from HIV-infected individuals (age ranging from 46-62 years old) on suppressive ART for >8 years (n=6). The plasma viral loads were below the detective level (<20 copies/ml plasma) and the average CD4+ T cell number was 664.4±180.5 cells/ml. The primary CD4+ T cells were isolated using the EASYSEP™ kit ([…]™ Technologies Inc., Vancouver, BC, Canada) as previously described (see G. Jiang, et al. PLoS pathogens 11, el 005066 (2015) and G. Jiang, et al. AIDS 28, 1555-1566 (2014)). The purified CD4+ T cells were plated at a density of 0.5-1×10^6 cells and treated with Control, 200 ng/ml PMA plus 2 μM lonomycin, 12 nM PEP005, 40 mM Na-Cro, or 12 nM PEP005 plus 40 mM Na-Cro for 6 hours. Cell pellets were collected for RNA isolation. Initiation, elongation, or full transcription of HIV was analyzed with ddPCR assays as reported before (see G. Jiang, et al. PLoS pathogens 11, e1005066 (2015); P. Kaiser, et al. Journal of virological methods 242, 1-8 (2017); and L. Shan, et al. Journal of virology 87, 6521-6525 (2013)).

`C/C=C/C(=O)[O-].[Na+]` [Na-Cro, sodium crotonate]: the “increase in viral transcription compared to untreated controls” value in assay [1] is listed as 6 fold. Also, in assay [2], the “elongation of HIV transcripts (long LTR), patients responding” value is “all 6 patients”; the “full-length transcription of HIV (poly A region), patients responding” value is 4 of the 6 patients; the “initiation of HIV transcription (TAR region), patients responding” value is “all 6 patients”.
